According to US20230141863A1, “Small Molecule Inhibitors Targeting the Sodium Channel Tamoxifen Receptor and Uses Thereof” (Northwestern University, priority 2021, published 2023):

How the values were obtained:
[1] = test system: mice with knee hyperalgesia post DMM surgery; assay: In vivo osteoarthritis pain model (DMM), knee hyperalgesia after intra-articular injection; set-up: species or system mouse; settings: 50 μM intra-articular, vehicle 0.1% DMSO; for knee hyperalgesia versus vehicle, direct comparison study (in words): 30 minutes after injection; for knee withdrawal threshold versus vehicle control (in words): through 3 hours after injection
[2] = test system: T1, endogenous voltage-gated sodium channels expressed in murine DRG neurons; assay: Whole cell voltage clamp of endogenous sodium currents (INa) in cultured DRG sensory neurons; format: cell-based, mouse; settings: for voltage dependence of INa inhibition (in words): −60 mV versus −100 mV holding potential
T1 construct: other: waiting for 5 minutes after removal; ND-Tam potency against DRG INa (IC50); other: DRG neurons, −60 mV holding potential; other: 3 μM ND-Tam treatment; other: DR
Experimental: FIG. 1. Tamoxifen metabolites inhibit endogenous voltage-gated sodium channels expressed in murine DRG neurons. A) DIC and fluorescence images of voltage clamped DRG neuron isolated and cultured from an Nav1.8-tomato mouse. Continuity with the patched neuron is indicted by the GFP (Alexa Fluor 488 dye 1 nM) loaded into the glass patch electrode. B) Top, exemplar sodium currents (INa) recorded in control saline and two concentrations of N-desmethyl tamoxifen (ND-Tam) from a voltage-clamped DRG neuron. INa was activated by 0.2 Hz train of 50 ms depolarizations to −10 mV from −100 mV holding potential. Bottom, time course of peak INa inhibition during control conditions and after 5 minutes of extracellular ND-Tam treatment. C) Resulting drug concentration-INa inhibition relationship for ND-Tam fit to the Hill equation. Open symbols represent responses from individual cells and filled symbols represent average response per concentration. Error is equal to S.E.M. (n=11) D) A comparison of the percent INa recovery after 3-10 μM ND-Tam or 1 mM carbamazepine (CBZ) inhibition. INa recovery was assessed after 5 minutes in control saline post drug exposure. Fewer INa recovered from ND-Tam exposure compared to CBZ exposure, 14.3±5.4% and 47.2±9.6%, respectively, and was statistically significant (P=0.03). Error is equal to S.E.M. and the number of cells tested per treatment group is indicated within the parentheses.
Previously, a unique receptor site for tamoxifen analogues within the prokaryotic sodium channel isolated form Magnetococcus marinus (NavMs)^36 (Sula et al) was crystallographically identified. Because drug occupancy of this receptor caused long lasting inhibition of the NavMs INa, the inventors wondered if these properties would translate into effects against sensory neuron Na s which transmit pain signals. Accordingly, =the potency of ND-Tam and 4OH-Tam was tested against endogenously expressed Na s in cultured DRG sensory neurons isolated from Nav1.8-tdTomato mice by conducting whole cell voltage clamp recordings (FIG. 1A, B). Sodium currents were activated by a 0.2 Hz train of −10 mV depolarizations from a holding potential of −100 mV. The externally applied drug effect was determined after three to five minutes of application of each drug concentration (FIG. 1B). […] As discussed in the introduction, total DRG INa is conducted by the Nav1.1, Nav1.6, Nav1.7, Nav1.8 and Nav1.9 subtypes. To determine if there is any specificity in the potency of tamoxifen analogues against Nav subtypes, human orthologues were heterologously expressed in cell lines (HEK and CHO co-expressing hb1 subunits), and conducted voltage-clamp experiments, as previously performed in the DRG neurons.
Dorsal root ganglia were isolated using a modified version of the previously described protocol (PMID: 26864470). All animal procedures were approved by the Institutional Animal Care and Use Committee at the Feinberg Medical School, Northwestern University. The spinal columns of 4-6-week-old […] or Nav1.8-Tomato mice (Nav1.8-Td) were removed and DRG neurons from all spinal levels were isolated for primary culture (PMID: 33827672, PMID: 31351964). The collected DRGs, containing both neuronal and non-neuronal cells, were acutely dissociated in DMEM with collagenase IV (2 mg/mL) for 30 minutes, followed by papain (25 U/mL) for 30 minutes. The cells were then triturated, filtered through a 40 μm cell strainer to remove non-dissociated cells, and washed with DMEM. The DRGs were resuspended in 70 μL of pre-warmed growth medium (DMEM F12+Glutamax supplemented with 0.5% FBS, 0.5% penicillin/streptomycin, 1% N-2 supplement, and β-NGF ([…]) added on the day of use) and plated on poly-l-lysine (10 mg/mL) and laminin (25 μg/mL) prepared coverslips. The DRGs were incubated at 37° C. for 2-4 hours before more growth medium was added to the wells. […]

[3] = test system: mice with knee hyperalgesia post DMM surgery; settings: 20 mg/kg, ~0.85M, PMID: 29563338; cited from earlier work
human Nav1.7 = target: T2, human Nav1.7 (Homo sapiens, UniProt Q15858); assay: Voltage clamp of heterologously expressed Nav1.7; format: cell-based; settings: Hill fit, printed for ND-Tam and 4OH-Tam together
T2 construct: expressed in transfected cells; host or cells: HEK cells, transient transfection with lipofectamine
Experimental: While no clear drug-receptor interactions were determined within Siteout, the S6 E220 side chains formed hydrogen bond interactions with the ether and amine moieties of the ND-Tam molecules found at Sitein. […] After structural alignment of the crystalized NavMs-Tam complex with the cryo EM Nav1.7+b1+b2 channel coordinates, the S6 side chain hydroxyl in DII (S969) and the carboxyl side chains in DIII (E1458) and DIV (D1761) observed in the human channel were nearly superimposable with E220 of the prokaryotic Nav subunits. In addition, the distances from the drug ether and amines were within acceptable distances (2.8-3.1 Å) for hydrogen bond formation for all three site chains (FIG. 2B). […]
Plasmids encoding the human version of channels Nav1.1, 1.6, and 1.7 were co-transfected with TRES GFP into HEK cell lines for whole-cell voltage clamp studies (American Type Culture Collection). […] Plasma membrane currents were recorded using borosilicate glass electrodes polished to resistances of […]. Sodium currents conducted by heterologously expressed Navs were recorded using the following solutions (in mM). […] Endogenous DRG sodium currents were recorded using an intracellular solution consisting of 70 CsCl, 70 CsF, 2 EGTA, 5 HEPES, and 5 NaCl; the pH was adjusted to 7.4 with CsOH. […]

T2 sequence (Q15858 whole entry): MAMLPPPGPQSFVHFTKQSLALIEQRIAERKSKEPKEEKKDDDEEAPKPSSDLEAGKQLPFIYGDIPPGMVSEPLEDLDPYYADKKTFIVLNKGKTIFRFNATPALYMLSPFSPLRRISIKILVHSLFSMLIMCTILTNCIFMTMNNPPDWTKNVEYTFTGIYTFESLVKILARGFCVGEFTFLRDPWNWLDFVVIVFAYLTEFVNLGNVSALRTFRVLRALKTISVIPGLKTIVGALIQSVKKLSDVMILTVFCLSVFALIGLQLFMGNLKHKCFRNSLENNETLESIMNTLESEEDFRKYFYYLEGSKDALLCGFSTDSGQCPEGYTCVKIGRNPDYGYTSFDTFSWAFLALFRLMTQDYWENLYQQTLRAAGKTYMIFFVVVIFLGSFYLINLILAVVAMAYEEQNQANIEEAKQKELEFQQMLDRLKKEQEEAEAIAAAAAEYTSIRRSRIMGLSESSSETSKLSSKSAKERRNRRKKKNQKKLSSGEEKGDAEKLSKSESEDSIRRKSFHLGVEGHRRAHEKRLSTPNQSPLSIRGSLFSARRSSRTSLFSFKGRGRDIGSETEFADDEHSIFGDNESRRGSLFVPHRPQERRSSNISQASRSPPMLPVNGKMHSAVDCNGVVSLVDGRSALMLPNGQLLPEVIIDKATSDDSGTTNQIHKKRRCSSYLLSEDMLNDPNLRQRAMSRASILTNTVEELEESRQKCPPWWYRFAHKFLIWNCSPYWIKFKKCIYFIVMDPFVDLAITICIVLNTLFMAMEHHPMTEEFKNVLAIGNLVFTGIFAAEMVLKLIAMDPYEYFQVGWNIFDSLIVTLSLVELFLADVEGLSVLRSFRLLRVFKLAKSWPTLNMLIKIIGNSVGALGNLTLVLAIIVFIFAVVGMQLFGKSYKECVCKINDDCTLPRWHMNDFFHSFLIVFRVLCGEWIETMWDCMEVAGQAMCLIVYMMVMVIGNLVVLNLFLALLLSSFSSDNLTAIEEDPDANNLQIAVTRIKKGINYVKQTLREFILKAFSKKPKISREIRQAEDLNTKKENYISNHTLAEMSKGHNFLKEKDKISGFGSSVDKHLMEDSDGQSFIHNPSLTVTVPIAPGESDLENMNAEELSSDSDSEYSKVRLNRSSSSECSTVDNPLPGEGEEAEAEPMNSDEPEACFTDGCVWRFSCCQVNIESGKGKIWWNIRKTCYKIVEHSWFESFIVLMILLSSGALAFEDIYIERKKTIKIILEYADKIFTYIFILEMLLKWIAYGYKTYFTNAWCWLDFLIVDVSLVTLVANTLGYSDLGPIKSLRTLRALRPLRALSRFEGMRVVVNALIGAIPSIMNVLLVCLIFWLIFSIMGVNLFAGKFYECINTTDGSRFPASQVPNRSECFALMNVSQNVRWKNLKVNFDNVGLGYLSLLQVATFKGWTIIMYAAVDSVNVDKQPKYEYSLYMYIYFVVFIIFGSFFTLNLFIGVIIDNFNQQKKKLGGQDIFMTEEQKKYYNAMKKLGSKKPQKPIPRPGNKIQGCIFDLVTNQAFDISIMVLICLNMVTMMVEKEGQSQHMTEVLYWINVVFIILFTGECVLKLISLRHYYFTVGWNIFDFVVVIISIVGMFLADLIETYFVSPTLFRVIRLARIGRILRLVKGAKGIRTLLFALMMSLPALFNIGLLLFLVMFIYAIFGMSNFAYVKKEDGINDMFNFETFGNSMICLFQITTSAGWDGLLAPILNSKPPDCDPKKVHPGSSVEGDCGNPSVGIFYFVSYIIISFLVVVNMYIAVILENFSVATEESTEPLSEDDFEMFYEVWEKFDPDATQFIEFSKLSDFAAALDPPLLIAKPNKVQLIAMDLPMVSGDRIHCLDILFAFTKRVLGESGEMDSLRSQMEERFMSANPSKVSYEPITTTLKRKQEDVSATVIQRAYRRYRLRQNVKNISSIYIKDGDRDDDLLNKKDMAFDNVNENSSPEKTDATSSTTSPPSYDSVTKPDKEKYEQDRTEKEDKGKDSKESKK

| Compound | knee hyperalgesia versus vehicle, direct comparison study (in words) [1] | knee withdrawal threshold versus vehicle control (in words) [1] | voltage dependence of INa inhibition (in words) [2] | knee hyperalgesia after local injection of a relatively high dose (in words) [3] | IC50 ([2]; DRG neurons, −100 mV holding potential, 0.2 Hz train of −10 mV depolarizations, read-out: half maximal potency of INa inhibition (IC50)) [µM] | inhibition of sodium currents recorded from DRG neurons (in words) ([2]; tamoxifen analogs and fragments, FIG. 7B) | slope of concentration-dependence (human Nav1.7) |
| --- | --- | --- | --- | --- | --- | --- | --- |
| C=C(C)[C@@H]1CCC(C)=C[C@H]1c1c(O)cc(CCCCC)cc1O [CBD, cannabidiol, reference compound] | effectively inhibited knee hyperalgesia | remained elevated compared to vehicle control through 3 hours after injection | followed this trend | – | – | – | – |
| NC(=O)N1c2ccccc2C=Cc2ccccc21 [CBZ, carbamazepine, reference compound] | – | – | most potent when membranes were held at −60 mV | – | – | – | – |
| CCN(CC)CC(=O)Nc1c(C)cccc1C [lidocaine, reference compound] | effectively inhibited knee hyperalgesia | remained elevated compared to vehicle control through 3 hours after injection | most potent when membranes were held at −60 mV | able to acutely reverse knee hyperalgesia | – | – | – |
| CC/C(=C(\c1ccc(O)cc1)c1ccc(OCCN(C)C)cc1)c1ccccc1 [4OH-Tam, 4-[(Z)-1-[4-[2-(dimethylamino)ethoxy]phenyl]-2-phenylbut-1-enyl]phenol] | – | – | – | – | 3.3 | inhibited sodium currents | 2.1 |
